Where a SMILES comes first, the peptide text is derived from it. Bridges are numbered along the chain shown (N, C = ends).
Key:
[1] = molecular target: T1, HTTQ23-HAP40 (Homo sapiens, UniProt P23610+P42858, INS38QQ); assay: Differential hydrogen-deuterium exchange mass spectrometry (ΔHDX-MS); type: binding; conditions: 15 μM protein, 1:4 macrocycle, labeling 0.5, 5, 30 mins at 20 °C
T1 construct: Full-length wildtype HTT with a polyQ tract of 23 glutamines; FLAG; made in house; host or cells: Sf9 insect cells (baculovirus)
T1 sequence (P42858 with tags, fused parts or gaps INS38QQ): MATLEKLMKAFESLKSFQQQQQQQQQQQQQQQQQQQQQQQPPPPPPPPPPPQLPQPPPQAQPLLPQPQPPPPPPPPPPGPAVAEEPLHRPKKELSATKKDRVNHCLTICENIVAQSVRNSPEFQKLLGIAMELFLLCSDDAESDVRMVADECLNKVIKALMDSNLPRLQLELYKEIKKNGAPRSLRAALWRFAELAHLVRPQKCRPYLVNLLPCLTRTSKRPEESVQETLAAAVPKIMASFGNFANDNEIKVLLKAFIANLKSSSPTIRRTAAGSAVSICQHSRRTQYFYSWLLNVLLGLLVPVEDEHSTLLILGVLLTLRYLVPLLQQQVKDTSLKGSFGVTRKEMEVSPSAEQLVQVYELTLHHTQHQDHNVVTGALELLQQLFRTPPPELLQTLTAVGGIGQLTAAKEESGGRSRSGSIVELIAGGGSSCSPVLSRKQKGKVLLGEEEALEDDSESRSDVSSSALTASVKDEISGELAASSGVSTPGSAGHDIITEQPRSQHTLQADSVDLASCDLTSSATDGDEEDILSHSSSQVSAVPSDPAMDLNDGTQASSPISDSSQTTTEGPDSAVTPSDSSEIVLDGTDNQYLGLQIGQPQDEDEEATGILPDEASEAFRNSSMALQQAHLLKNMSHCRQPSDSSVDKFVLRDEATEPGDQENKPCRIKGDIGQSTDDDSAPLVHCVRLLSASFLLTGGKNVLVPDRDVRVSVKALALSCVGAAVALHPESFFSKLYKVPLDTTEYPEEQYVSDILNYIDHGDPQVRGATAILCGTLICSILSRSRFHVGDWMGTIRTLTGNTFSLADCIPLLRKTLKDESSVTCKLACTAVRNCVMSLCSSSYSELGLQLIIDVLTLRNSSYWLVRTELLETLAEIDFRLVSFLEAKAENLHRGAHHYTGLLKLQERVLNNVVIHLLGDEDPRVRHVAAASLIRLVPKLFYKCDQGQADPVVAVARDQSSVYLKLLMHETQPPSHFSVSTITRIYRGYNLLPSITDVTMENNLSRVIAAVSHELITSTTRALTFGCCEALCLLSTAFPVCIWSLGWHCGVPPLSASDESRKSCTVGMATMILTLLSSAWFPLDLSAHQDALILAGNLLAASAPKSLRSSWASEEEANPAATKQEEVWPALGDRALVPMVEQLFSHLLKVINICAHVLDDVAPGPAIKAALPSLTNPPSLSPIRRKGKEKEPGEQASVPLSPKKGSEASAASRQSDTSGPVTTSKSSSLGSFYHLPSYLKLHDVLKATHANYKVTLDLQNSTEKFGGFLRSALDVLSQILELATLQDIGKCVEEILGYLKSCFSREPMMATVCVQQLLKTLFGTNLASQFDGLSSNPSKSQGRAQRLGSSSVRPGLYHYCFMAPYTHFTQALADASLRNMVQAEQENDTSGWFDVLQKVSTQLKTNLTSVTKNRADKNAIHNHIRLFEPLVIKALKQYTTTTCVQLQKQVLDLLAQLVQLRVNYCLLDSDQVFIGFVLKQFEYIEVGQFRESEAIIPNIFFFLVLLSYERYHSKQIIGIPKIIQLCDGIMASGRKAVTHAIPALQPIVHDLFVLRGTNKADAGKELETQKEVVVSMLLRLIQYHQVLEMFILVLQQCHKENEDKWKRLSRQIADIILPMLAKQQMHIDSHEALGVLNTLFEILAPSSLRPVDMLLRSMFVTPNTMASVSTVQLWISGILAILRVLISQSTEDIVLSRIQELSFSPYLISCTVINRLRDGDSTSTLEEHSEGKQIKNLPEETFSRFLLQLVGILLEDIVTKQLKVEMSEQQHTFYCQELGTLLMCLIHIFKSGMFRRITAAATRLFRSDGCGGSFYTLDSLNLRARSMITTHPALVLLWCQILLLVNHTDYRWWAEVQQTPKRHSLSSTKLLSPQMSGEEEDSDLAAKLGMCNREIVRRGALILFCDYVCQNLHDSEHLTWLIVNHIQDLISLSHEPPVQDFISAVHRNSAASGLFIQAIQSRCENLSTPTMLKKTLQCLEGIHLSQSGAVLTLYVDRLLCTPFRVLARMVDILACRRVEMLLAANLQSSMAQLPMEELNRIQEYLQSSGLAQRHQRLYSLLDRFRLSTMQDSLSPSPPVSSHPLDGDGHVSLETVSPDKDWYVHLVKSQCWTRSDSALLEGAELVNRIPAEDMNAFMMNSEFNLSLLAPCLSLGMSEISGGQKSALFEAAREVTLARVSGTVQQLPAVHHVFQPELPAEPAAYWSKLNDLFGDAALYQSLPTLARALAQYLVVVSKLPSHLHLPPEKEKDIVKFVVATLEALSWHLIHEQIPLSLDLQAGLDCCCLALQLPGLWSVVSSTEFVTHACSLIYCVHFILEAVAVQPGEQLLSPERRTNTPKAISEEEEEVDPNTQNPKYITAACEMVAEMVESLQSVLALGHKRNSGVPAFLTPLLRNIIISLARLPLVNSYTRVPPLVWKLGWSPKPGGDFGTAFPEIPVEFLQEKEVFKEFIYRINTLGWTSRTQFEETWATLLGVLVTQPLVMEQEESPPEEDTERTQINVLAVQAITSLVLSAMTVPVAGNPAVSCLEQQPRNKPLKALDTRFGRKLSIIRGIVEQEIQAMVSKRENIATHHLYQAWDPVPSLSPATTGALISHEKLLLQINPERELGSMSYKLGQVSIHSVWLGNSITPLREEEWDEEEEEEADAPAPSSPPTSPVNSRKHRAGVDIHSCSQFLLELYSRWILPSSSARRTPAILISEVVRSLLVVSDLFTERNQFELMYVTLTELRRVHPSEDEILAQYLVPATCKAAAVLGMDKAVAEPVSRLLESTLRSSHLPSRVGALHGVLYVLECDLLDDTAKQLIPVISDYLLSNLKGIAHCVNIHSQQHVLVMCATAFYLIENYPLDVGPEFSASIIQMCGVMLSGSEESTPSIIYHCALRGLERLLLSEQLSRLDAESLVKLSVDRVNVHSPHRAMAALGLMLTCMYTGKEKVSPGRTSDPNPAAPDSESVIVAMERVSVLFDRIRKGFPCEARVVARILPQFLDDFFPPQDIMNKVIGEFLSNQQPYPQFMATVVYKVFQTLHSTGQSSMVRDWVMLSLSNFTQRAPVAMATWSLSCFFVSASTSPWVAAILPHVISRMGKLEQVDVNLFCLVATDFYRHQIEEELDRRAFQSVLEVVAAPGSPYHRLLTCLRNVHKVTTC
T1 sequence (P23610 whole entry, stated change not applied): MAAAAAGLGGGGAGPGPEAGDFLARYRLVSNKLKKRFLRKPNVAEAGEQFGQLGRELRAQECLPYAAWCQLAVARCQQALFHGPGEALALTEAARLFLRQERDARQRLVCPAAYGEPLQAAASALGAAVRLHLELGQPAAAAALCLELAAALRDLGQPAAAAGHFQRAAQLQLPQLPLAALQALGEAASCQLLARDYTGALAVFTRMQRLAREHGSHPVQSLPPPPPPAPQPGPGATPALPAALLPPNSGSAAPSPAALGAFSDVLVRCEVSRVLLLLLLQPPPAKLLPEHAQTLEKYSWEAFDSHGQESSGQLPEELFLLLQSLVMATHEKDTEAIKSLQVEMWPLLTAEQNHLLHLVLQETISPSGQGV
Protocol: Samples were labeled at 3 timepoints (0.5, 5, 30 mins) with 87% (v/v) deuteration buffer (10 mM Phosphate Buffer pD 7.5, 150 mM NaCl) at 20 °C. The HDX reaction was quenched at 50% (v/v) with 7.5 M Guanidine-HCl, 0.5 M TCEP, 100 mM Phosphate Buffer pH 2.5 at 0 °C for 2 min and subsequently diluted with an equal volume of quench dilution buffer (100 mM Phosphate Buffer, pH 2.5). The protein was digested using 1:1 Nepenthesin(II)-Pepsin (Affipro) followed by desalting (ACQUITY UPLC BEH C18 VanGuard Pre-column, Waters) and reverse-phase separation (ACQUITY UPLC BEH C18 Column, Waters). Liquid handling was achieved using the ACQUITY UPLC M-Class System with HDX Technology (Waters) and PAL3 Robotic Tool Change (LEAP, Trajan Scientific and Medical). The peptides were then analyzed using the Select Series Cyclic IMS mass spectrometer (Q-IMS-TOF, Waters). Peptide identification and HDX data analysis were achieved using ProteinLynx Global Server 3.0.3 (Waters) and DynamX 3.0 (Waters), respectively. Microsoft Excel and PyMOL 2.5 were used for visual presentation of HDX data. An AlphaFold 3 model was used to incorporate missing loops for depicting HTTQ23 and HTTQ23-HAP40. The peptide sequence coverage for HTT and HAP40 was 56.6–76.8% and 77.4–82%, respectively (Supplementary Figure 3–5). […]

[2] = tested on: HAP40; assay: Macrocycle precipitation (MP), co-purification of HAP40, LC-MS/MS; type: binding, human; conditions: HEK293T lysate versus HTT CRISPR knockout line
Excerpt: To assess macrocycle selectivity and identify potential HTT interacting proteins, we performed LC-MS/MS analysis of the proteins in the MP eluates. To control for non-specific binding, we performed MPs using lysates from a HTT CRISPR knockout cell line ([Jung et al., 2021]). Across all macrocycles, HTT emerged as the most enriched protein after background subtraction (Figure 5b). Given we performed affinity purification using macrocycles targeting distinct HTT surfaces, we hypothesized that any real HTT protein binder might be co-purified with two or more macrocycles. […] In contrast, HAP40 was not enriched by HL5, consistent with its specificity for apo HTT.
Macrocycles were pre-conjugated to streptavidin beads (Cytiva, 17-5113-01) by incubating with a 30 μL slurry of beads per macrocycle purification (MP) in Lysis Buffer (10 mM Tris-HCl, pH 7.9, 150 mM NaCl, 0.1% NP-40, 1:500 protease inhibitor cocktail (Sigma-Aldrich), 1:1,000 benzonase nuclease, and 2 mM MgCl2) for 1 hour at 4°C. A concentration of 1.25 μM macrocycle was used for conjugation. After incubation, beads were washed three times with 500 μL Lysis Buffer to remove unbound macrocycles and resuspended in 500 μL of lysate at 4 mg/mL protein concentration.
Cells were harvested by centrifugation at 1,500 rpm for 5 minutes, washed twice with PBS, and snap-frozen. Cell pellets were then resuspended in 500 μL of Lysis Buffer (as described above) and incubated on an end-over-end rotator at 4°C for 1 hour. Lysates were clarified by centrifugation at 20,000g for 15 minutes at 4°C, and the supernatant was transferred to fresh 1.5 mL Eppendorf tubes. Protein concentration was determined by BCA assay (Thermo Fisher Scientific, 23225), yielding approximately 4 mg of protein on average. Lysates were diluted to a final concentration of 4 mg/mL for use, providing […] of total protein per MP.
Macrocycle-conjugated beads were incubated with 2 mg of lysate in Lysis Buffer for 1 hour at 4°C with rotation. After incubation, beads were collected by centrifugation at 3,000 rpm, and the flow-through was saved for analysis. Beads were then washed sequentially with 1 mL of Wash Buffer 1 (10 mM Tris-HCl, pH 7.9, 100 mM NaCl, 0.1% NP-40) and twice with Wash Buffer 2 (Wash Buffer 1 without detergent). Lastly, bound proteins were eluted from the beads with 200 μL of 0.5 M NH4OH and flash-frozen in liquid nitrogen.
All sample preparation, LC MS/MS data collection, and MS data searches were carried out at the SPARC BioCentre at The Hospital for Sick Children (Toronto, ON, Canada). […] Samples were analyzed by liquid chromatography tandem mass spectrometry (LC-MS/MS) using an EASY-nanoLC 1200 system with a 1 h analysis and an Orbitrap Fusion™ Lumos™ Tribrid™ Mass Spectrometer (Thermo Fisher Scientific). […]

Compound: CC[C@H](C)[C@@H]1NC(=O)[C@H](Cc2c[nH]c3ccccc23)NC(=O)[C@@H]2CCCN2C(=O)[C@H](C)NC(=O)[C@H](C(C)C)NC(=O)[C@H](CCC(N)=O)NC(=O)[C@H](Cc2ccccc2)NC(=O)[C@H](Cc2c[nH]cn2)NC(=O)[C@H]([C@@H](C)O)NC(=O)[C@H](Cc2ccc(O)cc2)NC(=O)CSC[C@@H](C(N)=O)NC(=O)[C@H](CC(C)C)NC(=O)[C@H](CO)NC(=O)[C@H](CCC(N)=O)NC1=O [HL5] ({CH2CO}-YTHFQVAPWIQSLC-NH2; thioether N-14; C-terminus assumed)
- Cumulative ΔHDX of HTTQ23-HAP40 on incubation with macrocycle [1]: no statistically significant cumulative HDX differences
- Enrichment of HAP40 in macrocycle pulldowns [2]: not enriched
